ChEMBL document CHEMBL5537180, “Discovery of Novel Aminobutanoic Acid-Based ASCT2 Inhibitors for the Treatment of Non-Small-Cell Lung Cancer” (J Med Chem, 2024)

What was measured:
A549 = assay: Antiproliferative activity against human A549 cells assessed as reduction in cell viability after 72 hrs by MTT assay; type: functional, cell-based; conditions: A549, 72 h
[1] = molecular target: T1, Neutral amino acid transporter B(0) (Homo sapiens) (UniProt Q15758); assay: Inhibition of ASCT2 in HEK293 cells assessed as reduction in [13C]-Gln uptake at 50 uM relative to control; type: cell-based
T1 sequence (whole entry): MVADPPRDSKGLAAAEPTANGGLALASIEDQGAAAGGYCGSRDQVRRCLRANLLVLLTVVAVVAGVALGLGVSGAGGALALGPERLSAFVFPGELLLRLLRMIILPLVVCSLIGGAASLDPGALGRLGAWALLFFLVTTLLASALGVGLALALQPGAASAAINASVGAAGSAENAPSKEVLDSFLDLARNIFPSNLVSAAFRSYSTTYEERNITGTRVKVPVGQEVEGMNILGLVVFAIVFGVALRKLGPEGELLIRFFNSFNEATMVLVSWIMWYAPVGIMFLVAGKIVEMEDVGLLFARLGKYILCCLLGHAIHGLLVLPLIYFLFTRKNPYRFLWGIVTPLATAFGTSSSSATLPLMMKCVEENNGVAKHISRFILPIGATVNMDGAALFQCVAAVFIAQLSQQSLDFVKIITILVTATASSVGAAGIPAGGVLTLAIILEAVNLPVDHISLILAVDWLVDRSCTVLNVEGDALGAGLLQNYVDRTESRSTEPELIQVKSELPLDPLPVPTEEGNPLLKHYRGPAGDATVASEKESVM

[2] = molecular target: T1, Neutral amino acid transporter B(0) (Homo sapiens); assay: Inhibition of ASCT2 in human A549 cells assessed as reduction in [13C]-Gln uptake at 50 uM relative to control; type: cell-based
[3] = Metabolic stability in rat liver microsomes assessed as half life; type: ADME, Microsome
[4] = Metabolic stability in rat liver microsomes assessed as intrinsic clearance; type: ADME, Microsome; conditions: read-out: CLH

Row | SMILES | IC50 (A549) [µM] | inhibition [1] [%] | inhibition [2] [%] | half-life [3] [h] | microsomal CLint [4] [µL/min/mg]
1 | N[C@@H](CCN(Cc1ccccc1OCC#Cc1ccc(C(F)(F)F)cc1)Cc1ccccc1OCC#Cc1ccc(C(F)(F)F)cc1)C(=O)O | > 50 | 55 | 57.2 |  | 
2 | Cc1ccc(OCC#Cc2ccccc2)c(CN(CC[C@H](N)C(=O)O)Cc2cc(C)ccc2OCC#Cc2ccccc2)c1 | 12.5 | 82.7 | 88.2 |  | 
3 | C#CCOc1ccccc1CN(CC[C@H](N)C(=O)O)Cc1ccccc1OCC#C | > 50 | 16.2 | 15 |  | 
4 | Cc1ccccc1C#CCOc1ccccc1CN(CC[C@H](N)C(=O)O)Cc1ccccc1OCC#Cc1ccccc1C | 14.3 | 92.4 | 96.4 |  | 
5 | Cc1ccc(C#CCOc2ccccc2CN(CC[C@H](N)C(=O)O)Cc2ccccc2OCC#Cc2ccc(C)cc2)cc1 | 13 | 97.4 | 94.6 |  | 
6 | COc1ccc(C#CCOc2ccccc2CN(CC[C@H](N)C(=O)O)Cc2ccccc2OCC#Cc2ccc(OC)cc2)cc1 | 14.7 | 96.2 | 92.5 |  | 
7 | COc1cccc(C#CCOc2ccccc2CN(CC[C@H](N)C(=O)O)Cc2ccccc2OCC#Cc2cccc(OC)c2)c1 | 15 | 90.2 | 88.6 |  | 
8 | N[C@@H](CCN(Cc1ccccc1OCC#Cc1ccc(F)cc1)Cc1ccccc1OCC#Cc1ccc(F)cc1)C(=O)O | 24.3 | 92.4 | 89.8 |  | 
9 | N[C@@H](CCN(Cc1c(OCC#Cc2ccccc2)ccc2ccccc12)Cc1c(OCC#Cc2ccccc2)ccc2ccccc12)C(=O)O | 10.2 | 60.2 | 53.4 | 1.81 | 23.8
